# Laboratory results from ChEMBL document CHEMBL1201862, “PubChem BioAssay data set” (2004).
# The source made the active and inactive calls.
# Legend:
# [1] = molecular target: Protein S100-A4 (Homo sapiens, UniProt P26447); assay: human S100A4 peptide interaction inhibition curves – biochemical, fluorescence polarization, cherry-picked hits, dose response (AID 687001); assay type: functional
# [2] = molecular target: ATP-dependent translocase ABCB1 (Homo sapiens, UniProt P08183); assay: inhibition of P-gp mediated JC-1 efflux – Jurkat-DNR cells, flow cytometry, dose response (AID 1689); assay type: functional
# [3] = molecular target: Broad substrate specificity ATP-binding cassette transporter ABCG2 (Homo sapiens, UniProt Q9UNQ0); assay: blockers of JC-1 export by ABCG2 – Ig-MXP3 cells, flow cytometry, dose response (AID 1690); assay type: functional
# [4] = molecular target: T1, Beta-lactamase (Pseudomonas aeruginosa, UniProt Q79MP6); assay: […] counterscreen for selective VIM-2 inhibitors: dose response biochemical high throughput screening assay to identify inhibitors of IMP-1 metallo-beta-lactamase.
# [5] = molecular target: T1, Beta-lactamase; assay: inhibition of IMP-1 beta-lactamase activity – biochemical, epi-absorbance, selectivity assay for VIM-2 inhibitor project, dose response (AID 1920)
# [6] = molecular target: Beta-lactamase (Salmonella choleraesuis (strain SC-B67), UniProt Q5J463); assay: Epi-absorbance-based counterscreen for selective VIM-2 inhibitors: dose response biochemical high throughput screening assay to identify inhibitors of TEM-1 serine-beta-lactamase.
# [7] = molecular target: T2, Sentrin-specific protease 1 (Homo sapiens, UniProt Q9P0U3); assay: Dose response confirmation of small molecule inhibitors of the catalytic domain of the SUMO protease, SENP1 in a FRET assay.; assay type: functional; conditions: read-out: IC50_Mean
# [8] = molecular target: T2, Sentrin-specific protease 1; assay: SENP1 catalytic domain blockers, concentration series – biochemical, kinetic FRET, dose response (AID 651697); assay type: functional; conditions: read-out: IC50_Mean
# [9] = tested on: Streptococcus; assay: GAS UMAA2166 growth inhibition – luminescence, BacTiterGlo, counter-screen for streptokinase expression inhibitor project, dose response (AID 1915); assay type: functional, organism-based;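 further: potency for reduction of bacterial viability or growth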
# [10] = rise of 2N DNA cells, HeLa – IC50, dose response (AID 1117349); assay type: functional, cell-based
# [11] = molecular target: T3, Low molecular weight phosphotyrosine protein phosphatase (Homo sapiens, UniProt P24666); assay type: functional; conditions: read-out: IC50_Mean
# T3 sequence (P24666 whole entry): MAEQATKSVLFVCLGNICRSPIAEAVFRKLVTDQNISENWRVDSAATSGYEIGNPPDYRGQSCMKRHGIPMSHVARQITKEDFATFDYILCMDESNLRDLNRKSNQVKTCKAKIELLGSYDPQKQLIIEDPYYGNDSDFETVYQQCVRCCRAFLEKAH
# [12] = tested on: BJ; assay: growth inhibition of engineered Ras-driven BJ cells – cell-based, alamar blue fluorescence, cherrypicked samples, dose response (AID 2631); assay type: functional; conditions: Homo sapiens;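 further: confirmatory dose-response assay in RAS-dependent BJ fibroblasts engineered with TERT, LT and ST, with cytotoxicity read by fluorescence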
# [13] = molecular target: Cytochrome P450 2C19 (Homo sapiens, UniProt P33261); assay: Cytochrome panel assay with activity outcomes. Panel member name: p450-cyp2c19 Compounds with AC50 equal or less than 10 uM are considered active; assay type: functional
# [14] = molecular target: T4, Streptokinase A (Streptococcus pyogenes serotype M1, UniProt P10520); assay: viability-normalized secreted streptokinase activity reduction – plasminogen activation absorbance, OD405, dose response (AID 1914); assay type: functional, Streptococcus pyogenes M1 GAS;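 further: secreted streptokinase activity via plasminogen activation per viability signal from cell pellet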
# T4 sequence (P10520 whole entry): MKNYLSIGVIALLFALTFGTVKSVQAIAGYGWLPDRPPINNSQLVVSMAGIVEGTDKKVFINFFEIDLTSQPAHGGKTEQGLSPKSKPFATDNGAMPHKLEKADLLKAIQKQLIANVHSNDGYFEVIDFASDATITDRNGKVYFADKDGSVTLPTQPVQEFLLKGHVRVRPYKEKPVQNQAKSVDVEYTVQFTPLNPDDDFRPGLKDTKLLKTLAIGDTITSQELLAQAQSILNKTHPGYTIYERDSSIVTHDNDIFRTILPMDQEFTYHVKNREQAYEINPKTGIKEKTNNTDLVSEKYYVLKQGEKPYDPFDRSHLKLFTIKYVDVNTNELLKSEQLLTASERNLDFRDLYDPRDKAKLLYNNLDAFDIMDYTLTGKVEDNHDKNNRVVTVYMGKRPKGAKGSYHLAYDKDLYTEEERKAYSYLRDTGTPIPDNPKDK
# [15] = Luminescence Cell-Based Dose Response HTS to Identify Inhibitors of 5'UTR Stem-Loop Driven Prion Protein mRNA Translation in H4 Neuroglioblastoma Cells. [Related pubchem assays: 1827 (Project Summary), 1813 (Primary HTS)]; assay type: functional
# [16] = luciferase reporter signal suppression in cells – H4 neuroglioma cells, luminescence, dose response (AID 1990); assay type: functional, cell-based
# [17] = reduced cellular PGC1a acetyl-lysine signal – cell-based, cherry-picked samples, dose response (AID 720514); assay type: functional;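 further: potency may reflect raised or lowered acetylation signal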
# [18] = molecular target: Cytochrome P450 2C9 (Homo sapiens, UniProt P11712)
# [19] = alpha-synuclein stem-loop luciferase translation blockers – H4 neuroglioma cells, luminescence, confirmation (AID 1988); assay type: functional, cell-based
# [20] = molecular target: Cytochrome P450 2D6 (Homo sapiens, UniProt P10635);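 further: CYP2D6 member of a cytochrome P450 panel assay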
# [21] = tested on: Streptococcus sp. 'group A'; assay: Streptococcus pyogenes SK(-)GAS viability under kanamycin – luminescence, BacTiterGlo, confirmation, counter-screen for streptokinase expression inhibitor project, dose response (AID 1900); assay type: functional, organism-based
# [22] = rise of 4N DNA cells, HeLa – IC50, dose response (AID 1117351); assay type: functional, cell-based
# [23] = molecular target: T5, Cytochrome P450 1A2 (Homo sapiens, UniProt P05177);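 further: PubChem cytochrome P450 panel assay, CYP1A2 panel member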
# T5 sequence (P05177 whole entry): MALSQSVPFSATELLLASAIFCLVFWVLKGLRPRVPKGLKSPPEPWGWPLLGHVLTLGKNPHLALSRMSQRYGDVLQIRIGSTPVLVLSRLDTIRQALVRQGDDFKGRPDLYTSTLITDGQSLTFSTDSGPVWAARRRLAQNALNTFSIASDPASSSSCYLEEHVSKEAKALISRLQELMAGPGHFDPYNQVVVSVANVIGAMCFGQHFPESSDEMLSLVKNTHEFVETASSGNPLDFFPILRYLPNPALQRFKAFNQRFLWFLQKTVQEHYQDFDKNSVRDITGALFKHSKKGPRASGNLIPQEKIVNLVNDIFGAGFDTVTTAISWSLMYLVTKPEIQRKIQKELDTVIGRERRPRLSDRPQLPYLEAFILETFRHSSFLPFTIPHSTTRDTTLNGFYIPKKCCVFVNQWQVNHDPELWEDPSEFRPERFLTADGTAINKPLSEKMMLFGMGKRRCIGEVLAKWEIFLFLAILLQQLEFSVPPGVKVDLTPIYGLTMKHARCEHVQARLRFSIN
# [24] = molecular target: T3, Low molecular weight phosphotyrosine protein phosphatase; assay type: functional; conditions: read-out: IC50_Mean; remark: listed apart in the source
# T1 sequence (Q79MP6 whole entry): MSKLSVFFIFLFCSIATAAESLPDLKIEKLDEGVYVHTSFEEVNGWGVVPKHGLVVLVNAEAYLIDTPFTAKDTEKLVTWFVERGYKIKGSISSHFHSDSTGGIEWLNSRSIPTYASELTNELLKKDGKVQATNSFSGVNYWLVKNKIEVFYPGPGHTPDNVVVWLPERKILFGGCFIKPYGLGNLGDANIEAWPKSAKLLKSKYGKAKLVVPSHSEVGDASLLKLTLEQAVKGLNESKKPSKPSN
# T2 sequence (Q9P0U3 whole entry, the tested form may be a part): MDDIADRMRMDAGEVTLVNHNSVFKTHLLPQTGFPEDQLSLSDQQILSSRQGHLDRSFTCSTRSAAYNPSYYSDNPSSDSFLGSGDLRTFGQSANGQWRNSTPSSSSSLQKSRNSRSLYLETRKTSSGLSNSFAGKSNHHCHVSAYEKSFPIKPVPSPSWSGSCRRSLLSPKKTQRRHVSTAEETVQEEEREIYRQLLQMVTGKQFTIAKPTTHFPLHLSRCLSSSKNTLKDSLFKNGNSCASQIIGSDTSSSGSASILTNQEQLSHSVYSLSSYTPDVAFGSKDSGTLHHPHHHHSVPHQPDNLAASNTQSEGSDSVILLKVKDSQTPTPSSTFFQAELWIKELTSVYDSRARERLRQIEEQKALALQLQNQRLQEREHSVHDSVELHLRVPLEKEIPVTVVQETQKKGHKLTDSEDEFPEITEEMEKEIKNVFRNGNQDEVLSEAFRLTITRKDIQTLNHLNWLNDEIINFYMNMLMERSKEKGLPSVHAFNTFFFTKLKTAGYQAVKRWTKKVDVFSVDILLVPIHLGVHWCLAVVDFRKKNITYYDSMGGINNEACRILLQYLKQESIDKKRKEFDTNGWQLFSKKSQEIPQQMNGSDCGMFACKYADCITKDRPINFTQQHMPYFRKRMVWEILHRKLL
# Chain of Broad substrate specificity ATP-binding cassette transporter ABCG2 (Q9UNQ0 whole entry): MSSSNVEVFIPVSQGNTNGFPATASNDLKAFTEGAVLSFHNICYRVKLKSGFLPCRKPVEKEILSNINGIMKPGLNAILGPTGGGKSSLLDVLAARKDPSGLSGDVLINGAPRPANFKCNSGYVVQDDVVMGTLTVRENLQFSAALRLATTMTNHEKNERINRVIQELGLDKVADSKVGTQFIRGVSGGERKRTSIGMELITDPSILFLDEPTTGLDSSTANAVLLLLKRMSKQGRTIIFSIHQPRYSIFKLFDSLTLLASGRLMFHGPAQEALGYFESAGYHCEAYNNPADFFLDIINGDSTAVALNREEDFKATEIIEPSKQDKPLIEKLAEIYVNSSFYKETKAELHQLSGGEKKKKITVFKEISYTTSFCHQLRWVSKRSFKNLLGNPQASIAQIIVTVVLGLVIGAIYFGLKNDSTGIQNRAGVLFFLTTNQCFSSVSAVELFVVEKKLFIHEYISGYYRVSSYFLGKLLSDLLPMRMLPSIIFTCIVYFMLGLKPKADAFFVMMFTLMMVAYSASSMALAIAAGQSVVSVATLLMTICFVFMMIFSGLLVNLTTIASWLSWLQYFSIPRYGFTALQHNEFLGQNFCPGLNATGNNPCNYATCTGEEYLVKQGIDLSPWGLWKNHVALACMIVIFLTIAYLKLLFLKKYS
# Chain of Cytochrome P450 2C9 (P11712 whole entry): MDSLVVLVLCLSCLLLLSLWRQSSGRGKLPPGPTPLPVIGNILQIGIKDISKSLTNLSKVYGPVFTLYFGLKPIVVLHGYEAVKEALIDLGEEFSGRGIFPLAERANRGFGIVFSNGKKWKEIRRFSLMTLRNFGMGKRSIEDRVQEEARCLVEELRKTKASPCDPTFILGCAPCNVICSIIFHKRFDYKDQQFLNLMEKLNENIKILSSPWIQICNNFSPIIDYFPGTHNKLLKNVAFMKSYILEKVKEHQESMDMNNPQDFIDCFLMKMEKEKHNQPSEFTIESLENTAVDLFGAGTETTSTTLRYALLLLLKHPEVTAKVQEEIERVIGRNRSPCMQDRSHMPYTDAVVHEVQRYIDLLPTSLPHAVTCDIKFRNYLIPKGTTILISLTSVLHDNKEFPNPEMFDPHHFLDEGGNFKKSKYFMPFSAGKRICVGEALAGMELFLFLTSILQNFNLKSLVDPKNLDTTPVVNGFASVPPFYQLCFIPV
# Chain of Beta-lactamase (Salmonella choleraesuis (strain SC-B67), UniProt Q5J463) (Q5J463 whole entry, the tested form may be a part): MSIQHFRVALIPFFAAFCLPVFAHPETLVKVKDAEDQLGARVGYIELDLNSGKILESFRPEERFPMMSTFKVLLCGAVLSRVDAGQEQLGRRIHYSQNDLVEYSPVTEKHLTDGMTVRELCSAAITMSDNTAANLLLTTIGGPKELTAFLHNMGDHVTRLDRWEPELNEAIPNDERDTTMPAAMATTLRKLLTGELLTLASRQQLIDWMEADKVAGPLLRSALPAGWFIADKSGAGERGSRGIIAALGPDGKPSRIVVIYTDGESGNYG
# Chain of Cytochrome P450 2C19 (P33261 whole entry): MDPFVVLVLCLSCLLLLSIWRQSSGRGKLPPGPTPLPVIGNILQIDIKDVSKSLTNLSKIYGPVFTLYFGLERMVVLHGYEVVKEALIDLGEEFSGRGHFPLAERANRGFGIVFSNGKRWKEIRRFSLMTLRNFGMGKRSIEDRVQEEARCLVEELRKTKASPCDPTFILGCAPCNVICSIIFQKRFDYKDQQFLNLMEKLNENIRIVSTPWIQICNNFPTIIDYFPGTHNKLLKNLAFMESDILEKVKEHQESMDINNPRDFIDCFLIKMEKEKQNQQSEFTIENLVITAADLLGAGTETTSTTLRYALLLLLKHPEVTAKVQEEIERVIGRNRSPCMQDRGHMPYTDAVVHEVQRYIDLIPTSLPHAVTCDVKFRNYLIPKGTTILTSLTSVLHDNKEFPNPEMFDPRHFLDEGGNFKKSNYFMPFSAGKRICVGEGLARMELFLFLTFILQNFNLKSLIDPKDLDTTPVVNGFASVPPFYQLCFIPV
# Chain of Cytochrome P450 2D6 (P10635 whole entry): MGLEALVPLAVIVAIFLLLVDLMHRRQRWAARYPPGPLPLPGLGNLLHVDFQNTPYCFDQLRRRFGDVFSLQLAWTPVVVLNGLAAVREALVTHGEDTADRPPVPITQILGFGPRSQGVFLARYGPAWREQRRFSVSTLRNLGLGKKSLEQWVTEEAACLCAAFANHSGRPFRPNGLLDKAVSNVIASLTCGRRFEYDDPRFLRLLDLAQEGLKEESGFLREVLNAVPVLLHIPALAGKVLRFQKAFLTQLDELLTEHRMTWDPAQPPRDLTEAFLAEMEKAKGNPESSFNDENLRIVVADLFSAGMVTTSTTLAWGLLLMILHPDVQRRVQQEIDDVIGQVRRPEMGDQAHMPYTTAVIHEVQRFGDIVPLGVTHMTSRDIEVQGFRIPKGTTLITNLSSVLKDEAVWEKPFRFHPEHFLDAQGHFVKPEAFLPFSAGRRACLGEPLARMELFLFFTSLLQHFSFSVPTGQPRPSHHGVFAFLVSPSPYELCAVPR
# Chain of ATP-dependent translocase ABCB1 (P08183 whole entry): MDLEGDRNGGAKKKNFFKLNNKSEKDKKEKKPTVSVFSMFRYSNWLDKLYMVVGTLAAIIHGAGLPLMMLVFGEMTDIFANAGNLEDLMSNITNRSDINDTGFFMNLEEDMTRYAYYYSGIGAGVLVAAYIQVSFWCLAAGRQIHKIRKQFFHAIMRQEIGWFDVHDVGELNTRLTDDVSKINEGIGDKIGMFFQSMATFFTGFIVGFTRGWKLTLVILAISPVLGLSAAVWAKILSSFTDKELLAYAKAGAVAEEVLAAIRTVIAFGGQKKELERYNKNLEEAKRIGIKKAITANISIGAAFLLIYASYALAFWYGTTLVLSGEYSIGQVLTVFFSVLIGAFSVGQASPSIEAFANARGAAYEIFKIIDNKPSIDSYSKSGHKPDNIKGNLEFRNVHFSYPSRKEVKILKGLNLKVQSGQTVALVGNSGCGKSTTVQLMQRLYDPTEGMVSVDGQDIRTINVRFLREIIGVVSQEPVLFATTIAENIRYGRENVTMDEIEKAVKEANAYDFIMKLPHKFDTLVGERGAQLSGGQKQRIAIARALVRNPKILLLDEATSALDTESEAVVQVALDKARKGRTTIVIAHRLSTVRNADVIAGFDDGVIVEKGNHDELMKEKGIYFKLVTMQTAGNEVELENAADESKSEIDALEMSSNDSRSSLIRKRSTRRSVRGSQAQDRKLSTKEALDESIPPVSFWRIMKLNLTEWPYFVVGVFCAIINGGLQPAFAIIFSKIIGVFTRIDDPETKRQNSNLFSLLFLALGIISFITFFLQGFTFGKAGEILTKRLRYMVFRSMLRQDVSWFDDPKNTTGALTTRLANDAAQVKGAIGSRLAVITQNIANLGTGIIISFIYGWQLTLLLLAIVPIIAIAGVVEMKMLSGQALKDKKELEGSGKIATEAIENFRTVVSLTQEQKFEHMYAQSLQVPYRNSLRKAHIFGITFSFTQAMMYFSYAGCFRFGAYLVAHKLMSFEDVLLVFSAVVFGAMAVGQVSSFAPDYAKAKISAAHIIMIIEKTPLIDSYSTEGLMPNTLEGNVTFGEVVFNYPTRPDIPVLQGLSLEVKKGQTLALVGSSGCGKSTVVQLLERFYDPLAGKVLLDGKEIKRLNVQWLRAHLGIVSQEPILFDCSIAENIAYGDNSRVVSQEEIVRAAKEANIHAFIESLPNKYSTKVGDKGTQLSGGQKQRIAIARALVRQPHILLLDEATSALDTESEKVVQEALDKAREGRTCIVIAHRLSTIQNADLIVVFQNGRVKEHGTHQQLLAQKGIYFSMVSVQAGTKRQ
# Chain of Protein S100-A4 (P26447 whole entry): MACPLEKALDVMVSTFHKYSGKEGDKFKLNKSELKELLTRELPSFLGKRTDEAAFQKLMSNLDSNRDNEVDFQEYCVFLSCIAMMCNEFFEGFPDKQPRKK
smiles,measurement,setting,value
CC1(C)c2ccccc2N2CC(=O)N(CC(N)=O)C21C (centres undefined),AC50,[1],1.93 µM (active)
COc1ccc(CN2C(=O)c3ccccc3C2=O)cc1C(=O)Nc1ccccc1N1CCOCC1,EC50,[2],0.428 µM (active)
same,EC50,[3],0.34 µM (inactive)
Cc1ccc(S(=O)(=O)n2[nH]c(=O)cc2NC(=O)c2cccs2)cc1,IC50,[4],> 59.6 µM (inactive)
same,IC50,[5],> 59.6 µM (inactive)
same,IC50,[6],> 59.6 µM (inactive)
N=c1oc2ccc([N+](=O)[O-])cc2cc1C(=O)NCc1ccccc1,IC50,[7],2.45 µM (active)
same,IC50,[8],9.4 µM (active)
CCc1nc(N)nc(N)c1-c1ccc(Cl)cc1 [PYRIMETHAMINE],EC50,[9],51.2 µM (active)
same,IC50,[10],> 10 µM (inactive)
same,IC50,[11],32.9 µM (inactive)
same,EC50,[12],> 133 µM (inactive)
same,AC50,[13],inactive
same,EC50,[14],> 150 µM (not active)
same,EC50,[15],10.5 µM (active)
same,EC50,[16],3.81 µM (active)
same,AC50,[17],23 µM (active)
same,AC50,[18],inactive
same,EC50,[19],0.2 µM (active)
same,AC50,[20],7.94 µM (inconclusive)
same,EC50,[21],3.09 µM (active)
same,IC50,[22],> 10 µM (inactive)
same,AC50,[23],10 µM (inconclusive)
same,IC50,[24],16.5 µM (active)
